Reference: patent US6015805A, “17β-nitro-11β-arylisteroids and their derivatives having agonist or antagonist hormonal properties” (Research Triangle Research North Carolina, priority 1999, dated 2000)

How the values were obtained:
progestin receptor (rPR) = molecular target: T1, progestin receptor (rPR) (Oryctolagus cuniculus, UniProt P06186); assay: Receptor binding (rabbit), progestin receptor; conditions: for Ratio PR/GR: ratio of rPR to rGR relative affinities; for Relative Binding Affinity, rPR, Relative Affinity (Progesterone): relative to progesterone = 100, rabbit progestin receptor
T1 construct: hormone receptors for progestins and glucocorticoids from rabbits; from tissue; host or cells: rabbit
T1 sequence (P06186 1-930): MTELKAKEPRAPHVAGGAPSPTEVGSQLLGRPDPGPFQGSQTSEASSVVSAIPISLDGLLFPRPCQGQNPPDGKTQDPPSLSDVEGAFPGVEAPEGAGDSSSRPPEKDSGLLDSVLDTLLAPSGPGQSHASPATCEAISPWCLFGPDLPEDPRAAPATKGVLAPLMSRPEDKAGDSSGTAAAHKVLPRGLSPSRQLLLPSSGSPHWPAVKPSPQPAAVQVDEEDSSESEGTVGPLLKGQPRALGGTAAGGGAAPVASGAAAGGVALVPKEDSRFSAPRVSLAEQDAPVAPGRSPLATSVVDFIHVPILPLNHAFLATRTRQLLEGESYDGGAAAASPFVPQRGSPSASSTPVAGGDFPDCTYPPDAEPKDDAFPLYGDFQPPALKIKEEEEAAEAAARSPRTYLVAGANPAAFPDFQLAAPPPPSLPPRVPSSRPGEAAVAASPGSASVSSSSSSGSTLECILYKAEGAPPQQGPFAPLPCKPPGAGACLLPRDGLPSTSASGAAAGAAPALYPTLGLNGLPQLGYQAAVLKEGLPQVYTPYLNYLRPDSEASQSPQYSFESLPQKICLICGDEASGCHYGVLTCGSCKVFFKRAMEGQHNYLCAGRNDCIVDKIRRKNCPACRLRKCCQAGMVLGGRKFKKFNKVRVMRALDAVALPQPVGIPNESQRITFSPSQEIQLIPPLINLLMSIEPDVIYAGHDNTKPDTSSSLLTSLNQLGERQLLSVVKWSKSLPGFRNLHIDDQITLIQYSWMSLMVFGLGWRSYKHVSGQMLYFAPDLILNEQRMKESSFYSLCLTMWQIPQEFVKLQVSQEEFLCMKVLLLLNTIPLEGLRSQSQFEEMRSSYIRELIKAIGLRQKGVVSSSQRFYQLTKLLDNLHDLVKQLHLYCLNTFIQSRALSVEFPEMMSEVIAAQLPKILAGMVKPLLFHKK

[1] = molecular target: T2, human progesterone hormone receptor (hPR) (Homo sapiens, UniProt P06401); assay: Receptor binding (human), inhibition of [^3 H]-R5020 binding; conditions: cytosol from human T-47D cells; 0.4 nM [^3 H]-R5020; 4 hours at 4° C.
T2 construct: The receptor was obtained in cytosol from human T-47D breast cells; endogenous in cells; host or cells: T-47D human breast cells (cytosol)
T2 sequence (P06401 1-933): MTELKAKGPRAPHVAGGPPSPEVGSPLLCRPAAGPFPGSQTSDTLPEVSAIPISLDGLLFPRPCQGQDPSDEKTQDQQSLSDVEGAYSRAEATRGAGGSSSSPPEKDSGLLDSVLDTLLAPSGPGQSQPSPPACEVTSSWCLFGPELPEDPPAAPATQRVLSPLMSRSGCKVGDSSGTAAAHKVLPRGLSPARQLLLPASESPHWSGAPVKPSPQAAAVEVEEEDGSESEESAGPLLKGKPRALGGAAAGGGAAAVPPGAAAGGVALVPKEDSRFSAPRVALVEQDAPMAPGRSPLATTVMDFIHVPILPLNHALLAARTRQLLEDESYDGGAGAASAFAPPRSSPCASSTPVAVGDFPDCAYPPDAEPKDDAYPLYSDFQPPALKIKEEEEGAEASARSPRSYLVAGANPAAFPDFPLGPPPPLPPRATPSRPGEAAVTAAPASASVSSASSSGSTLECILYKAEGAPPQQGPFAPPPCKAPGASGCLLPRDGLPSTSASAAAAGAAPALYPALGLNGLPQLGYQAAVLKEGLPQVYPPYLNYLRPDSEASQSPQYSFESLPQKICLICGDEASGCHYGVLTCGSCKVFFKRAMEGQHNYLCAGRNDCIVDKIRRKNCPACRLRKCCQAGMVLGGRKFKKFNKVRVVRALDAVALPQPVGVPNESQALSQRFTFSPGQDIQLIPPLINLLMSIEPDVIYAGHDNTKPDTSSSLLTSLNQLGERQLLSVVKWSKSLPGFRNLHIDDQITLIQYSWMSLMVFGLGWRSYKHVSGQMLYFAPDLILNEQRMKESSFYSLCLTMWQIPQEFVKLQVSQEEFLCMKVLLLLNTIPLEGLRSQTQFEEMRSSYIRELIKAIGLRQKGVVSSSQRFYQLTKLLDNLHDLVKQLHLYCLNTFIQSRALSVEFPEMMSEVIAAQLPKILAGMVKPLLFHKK
Procedure: The affinity of the compounds for hormone receptors for progestins and glucocorticoids from rabbits was determined by standard procedures similar to those that have been described in C. E. Cook, et al., Human Reproduction, Volume 9, supplement 1, pp. 32-39 (1994). However, the source of the glucocorticoid receptor was the thymus of the estrogen-primed immature female rabbit. The affinity of the compounds for the human progesterone hormone receptor was determined by standard procedures similar to those that have been described in Horwitz, et al., Cell, 28: 633-42 (1982) and Mockus, et al., Endocrinology, 110: 1564-71 (1982). The receptor was obtained in cytosol from human T-47D breast cells and [^3 H]-R5020 was used as the radioligand. T47D cells (1 billion/mL) were homogenized in TEDG buffer (10 mM Tris, 1.5 mM EDTA, 1 mM dithiothreitol, 1 mM sodium molybdate, and 10% glycerol) using a Dounce pestle A, and the homogenate was centrifuged at 34,000×g for 1 hour. The supernatant was stored at -80° C. An aliquot of receptor preparation was combined with test compound, 0.4 nM [^3 H]-R5020, and TEDG buffer to a final volume of 150 ,μL and incubated for 4 hours at 4° C. in microtiter plates. At the end of incubation 40 μL 40% polyethylene glycol and 15 μL 1% human gamma globulin was added to the incubate and the contents of each well were harvested onto double thick B filter mats (Wallac LKB) using a TomTec harvester. A film of Meltilux scintillant wax was applied to the dried filter mats and the mats were counted in a scintillation counter to determine inhibition of [^3 H]-R5020 binding. Data are expressed as lC50 values, i.e., the concentration of compound that inhibits radioligand binding by 50%.

human T-47D breast cells = assay: T47D cell proliferation, agonist format; type: cell-based; conditions: maximum % stimulation at any dose, 0.01 to 10 nM
Procedure: Human T-47D breast cells grown in nutrient media were incubated with the standard progestin R5020 alone or with R5020 plus test compound and then assessed by standard procedures for proliferation using incorporation of [^3 H]-thymidine as the measurement. […] The maximum % inhibition (a measure of the efficacy of the compounds) is also given. In the agonist format of this assay the compounds were tested at concentrations ranging from 0.01 to 10 nM and the maximum % stimulation at any dose is listed in Table 3.

| SMILES | Ratio PR/GR (progestin receptor (rPR)) | Relative Binding Affinity, rPR, Relative Affinity (Progesterone) (progestin receptor (rPR)) | IC50 [1] [µM] | Emax (human T-47D breast cells) [%] | separation of progestin and glucocorticoid receptor affinity (progestin receptor (rPR); in words) |
| --- | --- | --- | --- | --- | --- |
| CC#C[C@]1([N+](=O)[O-])CC[C@H]2[C@@H]3CCC4=CC(=O)CCC4=C3[C@@H](c3ccc(C(C)=O)cc3)C[C@@]21C [I 4-CH3 CO H O H --CC--CH3, 11β-(4-Acetylphenyl)-17β-nitro-17α-(1-propynyl)estra-4,9-dien-3-one] | 7.7 | 153 | 0.0008 | 35 | – |
| CC1=[N+]([O-])C2(CC1)CCC1C3CCC4=CC(=O)CCC4=C3C(c3ccc(N(C)C)cc3)CC12C (stereo not drawn) [II 4-Me2 N H O H -- CH3, 3',4'-dihydro-11β-(4-(N,N-dimethylamino)phenyl)-5'-methyl-1'-oxo-spiro[estra-4,9-dien-17β,2'(2'H)-pyrrole]-3-one] | 78.5 | 157 | 0.0102 | – | excellent separation of progestin and glucocorticoid receptor affinity |
| CC(=O)c1ccc([C@H]2C[C@@]3(C)[C@@H](CC[C@]3(CCCO)[N+](=O)[O-])[C@@H]3CCC4=CC(=O)CCC4=C32)cc1 [I 4-CH3 CO H O H --(CH2)3 OH, 11β-(4-Acetylphenyl)-17α-(3-hydroxypropyl)-17β-nitroestra-4,9-dien-3-one] | 17.7 | 53 | 0.016 | 41 | – |
| CC(=O)c1ccc([C@H]2C[C@@]3(C)[C@@H](CC[C@]3(/C=C/CO)[N+](=O)[O-])[C@@H]3CCC4=CC(=O)CCC4=C32)cc1 [I 4-CH3 CO H O H CH=CHCH2 OH, 11β-(4-acetylphenyl)-17α-(E-3-hydroxy-1-propenyl)-17β-nitroestra-4,9-dien-3-one] | 6.5 | 26 | 0.0261 | 52 | – |
| CN(C)c1ccc([C@H]2C[C@@]3(C)[C@@H](CC[C@]3(CCCO)[N+](=O)[O-])[C@@H]3CCC4=CC(=O)CCC4=C32)cc1 [I 4-Me2 N H O H --(CH2)3 OH, 11β-[4-(N,N-Dimethylamino)phenyl]-17α-(3-hydroxypropyl)-17β-nitroestra-4,9-dien-3-one] | 2.3 | 170 | 0.0041 | 33 | – |
